Assay results from US8124054B2, “Chelating agent conjugated α-MSH peptide derivatives, preparation method thereof and composition for diagnosis and treatment of melanoma comprising the same as an active ingredient” (Korea Atomic Energy Research Institute, priority 2008, dated 2012).

Test system: B16/F1 murine melanoma
Assay type: in vivo, C57BL mice
Procedure: To the nape of the neck of 12 female C57BL mice, each weighing 18˜23 g, B16/F1 murine melanoma cells were injected at a density of 10^6 cells/mL. Two weeks later, the tumor was developed to a size of 0.5˜1 g. The ^177Lu-DOTA-Gly-Cyclic(Dap-Gln-His-dPhe-Arg-Trp-Asp)-Lys-Pro-Val-CONH2 prepared in Example 13 was injected to the mice at a dose of 5 μCi (1.6 μg in 100 μl of saline). 2, 4 and 24 hours later, the mice were sacrificed before organ excision.
For comparison for target selectivity, the mice that were injected with 2 μg of an unlabeled peptide 2 hours after the first injection and then with the radiolabeled peptide were used as a control.
The excised organs were analyzed for radioactivity using a gamma counter (1470 WIZARD Automatic Gamma Counter, PerkinElmer) and the results are plotted in FIG. 7.

^177Lu-labeled DOTA-Gly-cyclic(Dap-Glu-His-dPhe-Arg-Trp-Asp)-Lys-Pro-Val-CONH2 [Example 13]
receptor selectivity (concluded from tumor uptake with and without unlabeled peptide): high receptor selectivity
tumor uptake in control injected with 2 μg of unlabeled peptide, compared with experimental groups (mouse, in vivo): lower tumor uptake
